Assay type in all cases: in vivo
The subject of data set [1] is Polygonum convolvulus. Nature of the data set: Comparative post-emergence herbicidal action (with Mero and AMS). To be noted: with 1.5 l/ha Mero and 2 kg/ha AMS, rated after 21 days. The text has this:
(§1) Seeds of mono- or dicotyledonous weed plants were sown in pots (diameter 7 cm) with sandy loam soil, germinated under optimium growth conditions and cultivated for 21 days.
(§2) The compounds, formulated in the form of wettable powders (WP) or as emulsion concentrates (EC), were sprayed onto the green parts of the plants as aqueous suspension or emulsion with addition of 1.5 l/ha Mero and 2 kg/ha AMS at a water application rate of 300 l/ha (converted).
(§3) After the test plants had been kept in the greenhouse under optimum growth conditions for 21 days, the activity of the preparations was rated visually in comparison to untreated control plants.
(§4) For example, 100% action=the plants have died and
(§5) 0% action=like control plants.
(§6) Tables C1-C3 below show the effects of a compound according to the invention (I.14-442) and a structurally related compound from WO2019/101551 (No. 16) on various harmful plants and at an application rate corresponding to 18 g/ha and less, which were obtained by the experimental procedure mentioned above.

In the next data set the test system is Solanum nigrum. The data set is described as above. To be noted: with 1.5 l/ha Mero and 2 kg/ha AMS, rated after 21 days.
Text: as §1, §2, §3, §4, §5, §6

The test system of another data set is Xanthium strumarium. Described as above. To be noted: with 1.5 l/ha Mero and 2 kg/ha AMS, rated after 21 days.
Text: as §1, §2, §3, §4, §5, §6

For data set [2], the system named is Glycine max. Briefly: Comparative post-emergence crop plant compatibility (with Mero and AMS).
Text: as §1, §2, §3, §4, §5
(§7) Tables C4 and C5 below show the effects of a compound according to the invention (114-442) and a compound from WO2019/101551 (No. 16) on various crop plants and at an application rate corresponding to 6 g/ha and less, which were obtained by the experimental procedure mentioned above.

For data set [3], the system named is Zea mays. The description is as above.
Text: as §1, §2, §3, §4, §5, §7

A further data set relates to Abutilon theophrasti. Nature of the data set: Post-emergence herbicidal action. To be noted: Abutilon theophrasti, 504 h, read-out: Abutilon theophrasti (efficacy in %); for pest or weed control at 5 g/ha: application rate 5 g/ha; for pest or weed control at 20 g/ha: application rate 20 g/ha. Summed up:
(§8)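 Plants grown from seed in sandy loam in the greenhouse were sprayed at the one-leaf stage, 2 to 3 weeks after sowing, with WP or EC formulations in water plus 0.5% additive at 20 g/ha or less. Activity was rated visually after about 3 weeks against untreated controls (100% = plants died, 0% = like control).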

The test system of the next data set is Amaranthus retroflexus. Briefly: Post-emergence herbicidal action. To be noted: Amaranthus retroflexus, 504 h, read-out: Amaranthus retroflexus (efficacy in %); for pest or weed control at 5 g/ha: application rate 5 g/ha; for pest or weed control at 20 g/ha: application rate 20 g/ha. Summed up:
as §8

The subject of another data set is Digitaria sanguinalis. Nature of the data set: Post-emergence herbicidal action. To be noted: 504 h, read-out: Digitaria sanguinalis (efficacy in %); for pest or weed control at 5 g/ha: application rate 5 g/ha; for pest or weed control at 20 g/ha: application rate 20 g/ha. The essentials: as §8
The next data set deals with Echinochloa crus-galli. Briefly: Post-emergence herbicidal action. To be noted: Echinochloa crus-galli, 504 h, read-out: Echinochloa crus-galli (efficacy in %); for pest or weed control at 5 g/ha: application rate 5 g/ha; for pest or weed control at 20 g/ha: application rate 20 g/ha. Summed up: as §8
For another data set, the system named is Hordeum murinum. Nature of the data set: Post-emergence herbicidal action. The essentials: as §8
For another data set, the system named is Lolium rigidum. Briefly: Post-emergence herbicidal action. To be noted: application rate 20 g/ha. The essentials: as §8
Another data set deals with Matricaria inodora. Nature of the data set: Post-emergence herbicidal action. To be noted: Tripleurospermum inodorum, 504 h, read-out: Matricaria inodora (efficacy in %); for pest or weed control at 5 g/ha: application rate 5 g/ha; for pest or weed control at 20 g/ha: application rate 20 g/ha. Summed up: as §8
Another data set has as its system Pharbitis purpurea. Nature of the data set: Post-emergence herbicidal action. To be noted: Ipomoea purpurea, 504 h, read-out: Pharbitis purpurea (efficacy in %); for pest or weed control at 5 g/ha: application rate 5 g/ha; for pest or weed control at 20 g/ha: application rate 20 g/ha. The essentials:
as §8

The subject of data set [4] is Polygonum convolvulus. Briefly: Post-emergence herbicidal action. To be noted: Fallopia convolvulus, 504 h, read-out: Polygonum convolvulus (efficacy in %); for pest or weed control at 5 g/ha: application rate 5 g/ha; for pest or weed control at 20 g/ha: application rate 20 g/ha. The essentials: as §8
In a further data set the test system is Setaria viridis. Briefly: Post-emergence herbicidal action. To be noted: 504 h, read-out: Setaria viridis (efficacy in %); for pest or weed control at 5 g/ha: application rate 5 g/ha; for pest or weed control at 20 g/ha: application rate 20 g/ha. The essentials:
as §8

The test system of another data set is Stellaria media. Nature of the data set: Post-emergence herbicidal action. To be noted: application rate 5 g/ha. Summed up:
as §8

The next data set concerns Veronica persica. Briefly: Post-emergence herbicidal action. To be noted: Veronica persica, 504 h, read-out: Veronica persica (efficacy in %); for pest or weed control at 5 g/ha: application rate 5 g/ha; for pest or weed control at 20 g/ha: application rate 20 g/ha. The essentials: as §8
In the next data set the test system is Viola tricolor. Briefly: Post-emergence herbicidal action. To be noted: Viola tricolor, 504 h, read-out: Viola tricolor (efficacy in %); for pest or weed control at 5 g/ha: application rate 5 g/ha; for pest or weed control at 20 g/ha: application rate 20 g/ha. The essentials:
as §8

The subject of data set [5] is Glycine max. Briefly: Post-emergence crop plant compatibility. To be noted: application rate 5 g/ha. The essentials: (§9)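 Greenhouse plants in sandy loam were sprayed at the one-leaf stage, 2–3 weeks after sowing, with WP or EC formulations in water plus 0.5% additive at […]. Damage was rated visually after about 3 weeks as % versus untreated controls, where 100% means dead plants and 0% means like controls.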

Another data set has as its system Oryza sativa. Briefly: Post-emergence crop plant compatibility. Summed up:
as §9

A further data set concerns Triticum aestivum. Nature of the data set: Post-emergence crop plant compatibility. To be noted: application rate 1.25 g/ha. The essentials:
as §9

Data set [6] concerns Zea mays. Briefly: Post-emergence crop plant compatibility. To be noted: application rate 1.25 g/ha. The essentials:
as §9

Another data set concerns Alopecurus myosuroides. Briefly: Post-emergence herbicidal action. To be noted: application rate 20 g/ha. The essentials:
as §8

The subject of the next data set is Avena fatua. Nature of the data set: Post-emergence herbicidal action. To be noted: application rate 20 g/ha. The essentials:
as §8

The structures appear in SMILES notation.

Turning to `CCOC(=O)COc1ncccc1Oc1cc(-n2c(=O)c(C)c(C(F)(F)F)n(C)c2=O)c(F)cc1Cl` [No. 16], the entries for the “Polygonum convolvulus (efficacy in %)” value in the data set on Polygonum convolvulus [1] (application rate 6 g/ha) and in the data set with Polygonum convolvulus [1] (application rate 18 g/ha) were 65% and 75%, respectively. The “Solanum nigrum (efficacy in %)” value with Solanum nigrum (application rate 6 g/ha) and with Solanum nigrum (application rate 18 g/ha) was 80% in each case. Besides, the “Xanthium strumarium (efficacy in %)” value with Xanthium strumarium (application rate 6 g/ha) is reported as 50%; with Xanthium strumarium (application rate 18 g/ha), 85%. Also, the “Glycine max (efficacy in %)” value with Glycine max [2] (application rate 2 g/ha) is on record as 40%; in the data set on Glycine max [2] (application rate 6 g/ha) it was 50%. For the same compound, the “Zea mays (efficacy in %)” value in the data set with Zea mays [3] (application rate 2 g/ha) was 40%; in the data set with Zea mays [3] (application rate 6 g/ha), 50%.

For `COC(=O)COc1ncccc1Sc1cc(-n2c(=O)cc(C(F)(F)F)n(N)c2=O)c(F)cc1Cl` [I.1-441, Methyl {[3-({5-[3-amino-2,6-dioxo-4-(trifluoromethyl)-3,6-dihydropyrimidin-1(2H)-yl]-2-chloro-4-fluorophenyl}sulfanyl)pyridin-2-yl]oxy}acetate], the pest or weed control at 5 g/ha in the data set with Abutilon theophrasti was 100%; with Amaranthus retroflexus it was 100%; with Digitaria sanguinalis, 90%; with Echinochloa crus-galli, 80%; in the data set with Matricaria inodora it was 100%; with Pharbitis purpurea, 100%. Also, the pest or weed control at 5 g/ha amounted to 80% in the data set with Polygonum convolvulus [4], 100% in the data set with Setaria viridis, 100% with Veronica persica and 100% with Viola tricolor. Also, the pest or weed control at 20 g/ha in the data set on Abutilon theophrasti, with Amaranthus retroflexus, in the data set with Digitaria sanguinalis, with Echinochloa crus-galli, with Matricaria inodora and in the data set on Pharbitis purpurea was 100% throughout. Moreover, the pest or weed control at 20 g/ha in the data set on Polygonum convolvulus [4], in the data set with Setaria viridis, in the data set on Veronica persica and in the data set with Viola tricolor was 100% each time. The “Hordeum murinum (efficacy in %)” value is listed as 80% in the data set with Hordeum murinum (application rate 5 g/ha) and 100% in the data set on Hordeum murinum (application rate 20 g/ha). Moreover, in the data set with Lolium rigidum, the “Lolium rigidum (efficacy in %)” value turned out to be 80%. The “Stellaria media (efficacy in %)” value in the data set with Stellaria media is on record as 100%. For the same compound, in the data set with Glycine max [5], the “Glycine max (efficacy in %)” value is 20%. Moreover, the figures for the “Oryza sativa (efficacy in %)” value in the data set on Oryza sativa (application rate 1.25 g/ha) and in the data set on Oryza sativa (application rate 5 g/ha) were 10% and 20%, respectively. Besides, in the data set on Triticum aestivum, the “Triticum aestivum (efficacy in %)” value was 20%. Further, in the data set on Zea mays [6], the “Zea mays (efficacy in %)” value was 20%.

Turning to `COCCOCCOC(=O)COc1ncccc1Sc1cc(-n2c(=O)cc(C(F)(F)F)n(N)c2=O)c(F)cc1Cl` [I.1-23, 2-(2-Methoxyethoxy)ethyl {[3-({5-[3-amino-2,6-dioxo-4-(trifluoromethyl)-3,6-dihydropyrimidin-1(2H)-yl]-2-chloro-4-fluorophenyl}sulfanyl)pyridin-2-yl]oxy}acetate], the pest or weed control at 5 g/ha with Abutilon theophrasti turned out to be 100%; in the data set with Amaranthus retroflexus, 100%; with Digitaria sanguinalis, 100%; in the data set on Echinochloa crus-galli it was 80%; in the data set with Matricaria inodora, 80%; with Pharbitis purpurea, 80%. Moreover, the pest or weed control at 5 g/ha with Polygonum convolvulus [4], in the data set on Setaria viridis, in the data set with Veronica persica and in the data set with Viola tricolor was 100% in each case. The pest or weed control at 20 g/ha in the data set with Abutilon theophrasti, with Amaranthus retroflexus, in the data set with Digitaria sanguinalis, in the data set with Echinochloa crus-galli, with Matricaria inodora and with Pharbitis purpurea was 100% throughout. The pest or weed control at 20 g/ha with Polygonum convolvulus [4], in the data set with Setaria viridis, with Veronica persica and with Viola tricolor was 100% throughout. For the same compound, the “Alopecurus myosuroides (efficacy in %)” value in the data set on Alopecurus myosuroides is reported as 90%. In the data set on Avena fatua, the “Avena fatua (efficacy in %)” value is listed as 100%. In addition, the “Lolium rigidum (efficacy in %)” value in the data set with Lolium rigidum was 80%. Moreover, the “Oryza sativa (efficacy in %)” value in the data set with Oryza sativa (application rate 1.25 g/ha) came out at 20%. Also, the “Triticum aestivum (efficacy in %)” value with Triticum aestivum was 20%. For the same compound, the “Zea mays (efficacy in %)” value with Zea mays [6] was 20%.

(Values after patent US20220274954A1, “SUBSTITUTED N-PHENYL-N-AMINOUARCILS AND SALTS THEREOF AND USE THEREOF AS HERBICIDAL AGENTS” (Bayer Aktiengesellschaft, priority 2019, published 2022).)
